The values that follow come from patent US20230064983A1 (priority 2020, published 2023).

Experiment [1] has as its target T1, EGFR with insertion SVD between D770 and N771 (mutEGFR D770_N771insSVD) (Homo sapiens, UniProt P00533, DUP768-770).
T1 construct: amino acids R669 to A1210; made in house; host or cells: Sf9 insect cells (baculovirus)
Nature of the experiment: Exon20-Mutant-EGFR(D770_N771insSVD) kinase assay (TR-FRET). The class given is biochemical. The conditions noted are these: 2 mM ATP, Table 2.

For a further experiment, the target named is T2, Bub1 (Homo sapiens, UniProt O43683).
T2 construct: catalytic domain of human Bub1 (amino acids 704-1085); His6 (N); made in house; host or cells: insect cells (Hi5)
Kind of experiment: Bub1 high ATP kinase assay (TR-FRET). It is filed as biochemical. The conditions noted are these: Bub1 high ATP (2 mM) IC50, TR-FRET, 2 mM ATP; Table 3. The method in brief: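 Enzyme was His6-tagged human Bub1 catalytic domain (aa 704-1085) from Hi5 insect cells, typically about 200 ng/ml, with a biotinylated peptide substrate at high ATP. Reaction ran 60 min at 22 °C, then was stopped with EDTA. Phosphopeptide was detected by TR-FRET (anti-phosphoserine antibody, Eu-labelled anti-mouse IgG, streptavidin-XL665), read as the 665/620 nm emission ratio.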
A general note: TR-FRET usually uses a lanthanide donor and a delayed reading to cut background.

Experiment [2] deals with Ba/F3-EGFR-D770_N771insSVD cells (Homo sapiens, UniProt P00533, DUP768-770, cells depend on it). Nature of the experiment: Ba/F3 cell survival assay, EGFR D770_N771insSVD. It is filed as cell-based. To be noted: Cell Titer-Glo, 48 h, without IL-3; Table 4; read-out: BA/F3 (insSVD) IC50. On the technique in general: ATP-based viability assays read luminescence as a measure of living cells.

In another experiment the target is Ba/F3-EGFR-WT cells (Homo sapiens, UniProt P00533). Nature of the experiment: Ba/F3 cell survival assay, wild type EGFR. It is filed as cell-based. The conditions noted are these: Cell Titer-Glo, 48 h, with 10 ng/mL EGF; Table 4; read-out: BA/F3 (wild type) IC50.

Each structure is given as a SMILES string. Some results are limits rather than exact numbers.

T2 sequence (O43683 704-1085): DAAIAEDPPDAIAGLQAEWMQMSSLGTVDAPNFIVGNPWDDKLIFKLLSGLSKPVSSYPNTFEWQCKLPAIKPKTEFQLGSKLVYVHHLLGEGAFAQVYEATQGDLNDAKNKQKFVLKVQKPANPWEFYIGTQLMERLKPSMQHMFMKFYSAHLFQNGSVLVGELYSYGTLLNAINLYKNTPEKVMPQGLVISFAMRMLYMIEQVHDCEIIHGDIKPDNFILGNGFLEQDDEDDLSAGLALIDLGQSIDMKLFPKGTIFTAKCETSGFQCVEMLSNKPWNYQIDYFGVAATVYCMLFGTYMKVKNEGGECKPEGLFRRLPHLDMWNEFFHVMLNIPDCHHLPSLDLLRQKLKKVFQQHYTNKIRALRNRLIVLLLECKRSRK
Ba/F3-EGFR-WT cells, sequence (P00533 whole entry, looked up, change not shown): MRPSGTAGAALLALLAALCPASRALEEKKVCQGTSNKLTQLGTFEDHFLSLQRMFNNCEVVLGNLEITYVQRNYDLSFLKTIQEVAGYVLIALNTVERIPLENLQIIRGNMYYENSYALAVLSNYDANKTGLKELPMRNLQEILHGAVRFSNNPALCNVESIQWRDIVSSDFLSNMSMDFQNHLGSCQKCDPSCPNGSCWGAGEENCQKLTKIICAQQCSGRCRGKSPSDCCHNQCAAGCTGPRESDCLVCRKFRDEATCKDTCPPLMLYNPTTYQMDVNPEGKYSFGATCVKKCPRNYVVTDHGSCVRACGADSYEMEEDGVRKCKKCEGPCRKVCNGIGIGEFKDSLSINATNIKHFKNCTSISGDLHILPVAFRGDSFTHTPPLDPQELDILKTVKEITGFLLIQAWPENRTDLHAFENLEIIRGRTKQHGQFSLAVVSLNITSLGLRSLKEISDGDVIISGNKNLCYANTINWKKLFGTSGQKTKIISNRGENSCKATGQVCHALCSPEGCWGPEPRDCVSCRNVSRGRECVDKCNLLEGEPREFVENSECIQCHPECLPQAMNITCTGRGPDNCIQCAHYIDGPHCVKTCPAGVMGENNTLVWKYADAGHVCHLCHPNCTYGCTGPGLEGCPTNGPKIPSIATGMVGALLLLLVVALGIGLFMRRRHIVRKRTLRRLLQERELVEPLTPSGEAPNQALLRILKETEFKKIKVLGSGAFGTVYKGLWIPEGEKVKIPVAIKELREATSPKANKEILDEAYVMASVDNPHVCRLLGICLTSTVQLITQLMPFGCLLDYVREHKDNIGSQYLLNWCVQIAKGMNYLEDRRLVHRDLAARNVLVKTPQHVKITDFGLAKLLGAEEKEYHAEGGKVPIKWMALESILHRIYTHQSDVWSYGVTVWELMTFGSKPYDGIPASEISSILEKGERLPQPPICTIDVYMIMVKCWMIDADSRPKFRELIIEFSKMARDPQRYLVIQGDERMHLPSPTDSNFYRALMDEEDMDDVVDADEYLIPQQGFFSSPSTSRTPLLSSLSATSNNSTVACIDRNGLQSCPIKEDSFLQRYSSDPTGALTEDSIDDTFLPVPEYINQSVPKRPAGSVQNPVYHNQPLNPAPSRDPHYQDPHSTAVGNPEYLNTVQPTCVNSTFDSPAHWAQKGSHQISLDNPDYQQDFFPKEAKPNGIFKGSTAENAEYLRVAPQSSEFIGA
T1 sequence (P00533 other isoform, or with tags, fused parts or gaps DUP768-770): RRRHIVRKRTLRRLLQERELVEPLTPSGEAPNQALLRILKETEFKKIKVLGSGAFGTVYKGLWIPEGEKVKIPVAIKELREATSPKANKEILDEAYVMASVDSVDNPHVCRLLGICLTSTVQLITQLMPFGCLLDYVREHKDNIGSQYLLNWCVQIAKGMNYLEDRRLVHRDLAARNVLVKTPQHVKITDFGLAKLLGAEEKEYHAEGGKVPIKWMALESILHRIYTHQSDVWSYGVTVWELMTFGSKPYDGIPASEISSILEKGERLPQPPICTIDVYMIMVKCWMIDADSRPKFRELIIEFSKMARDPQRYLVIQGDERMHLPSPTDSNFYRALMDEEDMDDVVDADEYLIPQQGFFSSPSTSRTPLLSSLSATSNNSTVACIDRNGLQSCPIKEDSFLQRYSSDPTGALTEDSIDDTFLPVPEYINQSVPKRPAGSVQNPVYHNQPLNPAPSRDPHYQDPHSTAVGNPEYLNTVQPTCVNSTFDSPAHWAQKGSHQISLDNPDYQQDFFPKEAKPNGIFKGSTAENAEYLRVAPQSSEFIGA
Ba/F3-EGFR-D770_N771insSVD cells, sequence (P00533 with tags, fused parts or gaps DUP768-770): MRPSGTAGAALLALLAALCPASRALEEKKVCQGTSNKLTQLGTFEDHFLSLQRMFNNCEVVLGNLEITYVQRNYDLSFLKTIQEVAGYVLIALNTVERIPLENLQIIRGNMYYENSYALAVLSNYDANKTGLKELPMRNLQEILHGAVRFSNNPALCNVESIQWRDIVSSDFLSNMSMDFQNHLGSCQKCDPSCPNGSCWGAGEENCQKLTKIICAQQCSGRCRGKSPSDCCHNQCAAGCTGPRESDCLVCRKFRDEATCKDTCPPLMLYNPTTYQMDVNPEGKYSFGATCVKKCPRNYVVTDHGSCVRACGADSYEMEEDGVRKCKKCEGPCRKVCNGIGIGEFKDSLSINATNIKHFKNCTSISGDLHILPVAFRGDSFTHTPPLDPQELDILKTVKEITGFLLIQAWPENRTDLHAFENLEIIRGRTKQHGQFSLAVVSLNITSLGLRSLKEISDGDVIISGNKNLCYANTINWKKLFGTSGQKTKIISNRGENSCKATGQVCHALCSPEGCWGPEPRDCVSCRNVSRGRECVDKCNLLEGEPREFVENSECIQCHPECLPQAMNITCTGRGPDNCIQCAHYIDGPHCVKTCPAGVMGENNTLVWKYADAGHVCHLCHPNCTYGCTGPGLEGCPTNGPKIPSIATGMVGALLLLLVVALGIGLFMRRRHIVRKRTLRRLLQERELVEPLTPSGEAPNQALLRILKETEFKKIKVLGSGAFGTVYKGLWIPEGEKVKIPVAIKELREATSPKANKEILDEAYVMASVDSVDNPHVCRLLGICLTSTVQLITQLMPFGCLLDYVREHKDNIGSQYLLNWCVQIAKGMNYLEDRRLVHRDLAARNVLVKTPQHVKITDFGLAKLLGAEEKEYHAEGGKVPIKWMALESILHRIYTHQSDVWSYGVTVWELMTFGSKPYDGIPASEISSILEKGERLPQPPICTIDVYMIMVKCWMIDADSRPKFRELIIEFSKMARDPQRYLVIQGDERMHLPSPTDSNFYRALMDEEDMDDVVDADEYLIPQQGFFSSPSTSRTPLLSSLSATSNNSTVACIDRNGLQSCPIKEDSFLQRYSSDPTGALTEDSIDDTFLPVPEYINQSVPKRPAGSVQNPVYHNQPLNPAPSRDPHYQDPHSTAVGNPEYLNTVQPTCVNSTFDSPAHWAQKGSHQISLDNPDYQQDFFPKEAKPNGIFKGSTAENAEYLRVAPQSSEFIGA

With `COCC(C)Oc1cnccc1-c1[nH]c2c(c1Nc1cccc(Cl)c1C)C(=O)N[C@H](C)C2` (stereo partly drawn) [Example 105, (6R)-3-(3-chloro-2-methylanilino)-2-{3-[(1-methoxypropan-2-yl)oxy]pyridin-4-yl}-6-methyl-1,5,6,7-tetrahydro-4H-pyrrolo[3,2-c]pyridin-4-one], in experiment [1], the “mutEGFR (D770_N771insSVD) kinase assay IC50” value (“mutEGFR” below) was found to be 0.000324 µM. Besides, the IC50 (as a rule, the concentration that inhibits the measured activity by half) against Bub1 came out at 3.7 µM. The GI50 in experiment [2] came to 0.0447 µM; at Ba/F3-EGFR-WT cells, 0.884 µM.

Turning to `Cc1c(Cl)cccc1Nc1c(-c2ccncc2OC[C@H]2CN(C)CCO2)[nH]c2c1C(=O)N[C@H](C)C2` [Example 106, (6R)-3-(3-chloro-2-methylanilino)-6-methyl-2-(3-{[(2R)-4-methylmorpholin-2-yl]methoxy}pyridin-4-yl)-1,5,6,7-tetrahydro-4H-pyrrolo[3,2-c]pyridin-4-one], the “mutEGFR” value in experiment [1] was found to be 0.00018 µM. At Bub1, it took 11.6 µM to reach half-maximal inhibition (IC50). For the same molecule, the GI50 in experiment [2] was 0.318 µM; at Ba/F3-EGFR-WT cells, 3.02 µM.

For `Cc1c(Cl)cccc1Nc1c(-c2ccncc2OC[C@@H]2CN(C)CCO2)[nH]c2c1C(=O)N[C@H](C)C2` [Example 107, (6R)-3-(3-chloro-2-methylanilino)-6-methyl-2-(3-{[(2S)-4-methylmorpholin-2-yl]methoxy}pyridin-4-yl)-1,5,6,7-tetrahydro-4H-pyrrolo[3,2-c]pyridin-4-one], the “mutEGFR” value in experiment [1] is 0.000115 µM. The molecule also came in with an IC50 against Bub1 above 20 µM. In addition, the GI50 in experiment [2] was 0.025 µM; at Ba/F3-EGFR-WT cells, 0.546 µM.

Take `C[C@@H]1Cc2[nH]c(-c3ccncc3OCC3COCCO3)c(Nc3cccc(F)c3CC(F)F)c2C(=O)N1` (stereo partly drawn) [Example 108, (6R)-3-[2-(2,2-difluoroethyl)-3-fluoro-anilino]-2-[3-(1,4-dioxan-2-ylmethoxy)-4-pyridyl]-6-methyl-1,5,6,7-tetrahydropyrrolo[3,2-c]pyridin-4-one]: the “mutEGFR” value in experiment [1] turned out to be 0.000213 µM. Also, at Bub1, the IC50 amounted to 6.22 µM. Also, the GI50 in experiment [2] was determined as 0.141 µM; at Ba/F3-EGFR-WT cells, 1.4 µM.

For `CCc1c(Cl)cccc1Nc1c(-c2ccncc2OC[C@@H]2CCCO2)[nH]c2c1C(=O)N[C@H](C)C2` [Example 109, (6R)-3-(3-chloro-2-ethylanilino)-6-methyl-2-(3-{[(2S)-oxolan-2-yl]methoxy}pyridin-4-yl)-1,5,6,7-tetrahydro-4H-pyrrolo[3,2-c]pyridin-4-one], the “mutEGFR” value in experiment [1] was 0.000526 µM. The same molecule returned an IC50 against Bub1 of 3.59 µM. Also, the GI50 in experiment [2] came to 0.0669 µM; at Ba/F3-EGFR-WT cells, 0.944 µM.

As for `CCc1c(Cl)cccc1Nc1c(-c2ccncc2OC[C@@H]2COCCO2)[nH]c2c1C(=O)N[C@H](C)C2` [Example 110, (6R)-3-(3-chloro-2-ethylanilino)-2-(3-{[(2S)-1,4-dioxan-2-yl]methoxy}pyridin-4-yl)-6-methyl-1,5,6,7-tetrahydro-4H-pyrrolo[3,2-c]pyridin-4-one], the “mutEGFR” value in experiment [1] was determined as 0.000333 µM. The molecule further registered an IC50 at Bub1 of 1.21 µM. The GI50 in experiment [2] stood at 0.0403 µM; at Ba/F3-EGFR-WT cells, 0.78 µM.

`COc1c(Cl)cccc1Nc1c(-c2ccncc2OC[C@@H]2COCCO2)[nH]c2c1C(=O)NC1(CC1)C2` [Example 111, 3′-(3-chloro-2-methoxyanilino)-2′-(3-{[(2S)-1,4-dioxan-2-yl]methoxy}pyridin-4-yl)-1′,7′-dihydrospiro[cyclopropane-1,6′-pyrrolo[3,2-c]pyridin]-4′(5′H)-one]: the “mutEGFR” value in experiment [1] was found to be 0.000205 µM. On Bub1, this molecule yielded an IC50 of 0.374 µM. Also, the figures for the GI50 (in experiment [2]; on Ba/F3-EGFR-WT cells) were 0.0194 µM and 0.574 µM, respectively.
